Results on one molecule are retold here after paper PMC8530378, “Comparison of: (2S,4R)-4-[^18F]Fluoroglutamine, [^11C]Methionine, and 2-Deoxy-2-[^18F]Fluoro-D-Glucose and Two Small-Animal PET/CT Systems Imaging Rat Gliomas” (Frontiers in Oncology, 2021).

The test system of the data set is orthotopic BT4C gliomas. In words: Dynamic PET/CT imaging of orthotopic BT4C gliomas, tumor-to-healthy brain uptake ratio (TBR). Format: in vivo. To be noted: dynamic PET images, both cameras pooled, BT4C glioma-bearing BDIX rats. On the procedure: The 16 glioma-bearing BDIX-Ifz rats (herein "BDIX") for imaging studies (8 weeks old, 9 males and 7 females) were anesthetized under 2-2.5% isoflurane and given buprenorphine (0.01 mg/kg) and carprofen (5 mg/kg) for analgesia during surgery. […] All animals were sacrificed after either the final imaging (PET studies) or the final blood sample collection (metabolism studies) under deep isoflurane anesthesia (4%) via cervical dislocation after cardiac puncture to collect terminal blood samples. […] The injected amount of radioactivity also varied based on camera and radionuclide. […] Each PET image was separately examined, in the initial 20 s of frames for the amino-acid-based radiopharmaceuticals and 40-60 min frames for [^18F]FDG, to manually delineate heart left ventricle cavity voxels to use as a blood radioactivity estimation region of interest (ROI). […] The dynamic PET image data was then extracted from each separate image and converted to standardized uptake values (SUV) which account for ROI volume, mean ROI radioactivity, subject weight, and total injected radioactivity dose (corrected for decay, residual syringe and cannula radioactivity). The results are shown as SUV ROI radioactivity curves over time as well as tumor-to-healthy brain region (TBR) ratios for improved comparisons. […]

As to `NC(=O)[C@H]([18F])C[C@H](N)C(=O)O` [[^18F]FGln, (2S,4R)-4-[^18F]Fluoroglutamine], the “Average tumor-to-healthy brain tissue uptake ratio (TBR), maximum” value was found to be 1.99 ± 0.19.
